Source: patent publication US11117919B2, “Icariside compound, preparation method thereof, and application thereof” (FOSHAN GOLDEN HEALTH TECHNOLOGY CO., LTD., priority 2015, dated 2021)

Key:
[1] = tested on: PFMCs from TB infected patients; test: IFN-γ production by pleural fluid cells (PFMCs) of tuberculosis patients; assay type: cell-based, human; conditions: 0.1, 0.5, 1 μg/ml, 48 h
Procedure: (2) Isolation of Pleural fluid cells (PFMCs, namely cells stimulated by tuberculosis bacteria infection) from patients suffering from tuberculosis: blood samples were taken from volunteers (vein blood of TB patients) and then anticoagulated with heparin and diluted with an equal volume of Hank's solution. The solution was centrifuged once (1800 rpm, 22° C. 8 minutes). After removal of the supernatant, an appropriate amount of ELS (erythrocyte lysate) was added for re-suspension. After 3-5 minutes, an appropriate amount of Hank's solution was added for stop and then the mixture was centrifuged twice (1800 rpm, 22° C. 8 minutes), followed by addition of RPMI1640 complete medium to adjust the PBMC cell concentration to 2×10^9 cells/L.
(§1) (3) PBMCs and PFMCs cell culture (MLC) with stimulation by a pharmaceutical: Icariside I was used at concentrations of 0.1 μg/ml, 0.5 μg/ml, and 1 μg/ml respectively to stimulate PBMCs and PFMCs under the incubation condition at 37° C. with 5% CO2 for 48 hours.
(4) ELISA assay for analysis of IFN-γ: according to the method stated in Example 5 (4), the levels of γ-interferon produced by PBMCs and PFMCs after culture with pharmaceutical stimulations were measured. […]

[2] = assay type: in vivo; conditions: observation for 14 days
Procedure: Mice weighed 18-22 grams were randomly divided into six groups with 10 mice each group. Each individual group of mice were treated (orally) with: physiological saline, DMSO 2.5 ml/kg, and icariside I: 2000 mg/kg, 1000 mg/kg, 500 mg/kg, 100 mg/kg respectively. […] Therefore, the acute toxicity of icariside I is very low which is safe for use in preparation of pharmaceuticals, health products, food, and cosmetic and skin care products for prevention and treatment of immunity-related diseases.

PBMCs from healthy human = test: IFN-γ production by PBMCs of healthy human cultured with icariside I (Example 9); assay type: cell-based; conditions: 0.1, 0.5, 1 μg/ml, 48 h
Procedure: (1) Isolation of human peripheral blood mononuclear cells (PBMCs): according to the method stated in Example 5 (2), normal human peripheral blood PBMCs were prepared.
as §1
(4) ELISA assay for analysis of IFN-γ: according to the method stated in Example 5 (4), the levels of γ-interferon produced by PBMCs and PFMCs after culture with pharmaceutical stimulations were measured.
PBMCs from healthy human and PFMCs from TB infected patients were respectively cultured for 2 days (48 h), then added or not added with the pharmaceutical icariside I (at a gradient of different concentrations). […] Among the tests, the concentrations of icariside I added were 0.1, 0.5 and 1 μg/ml. *P<0.05; **-***P<0.01.

[3] = tested on: S180 ascites tumor of mice; test: Inhibition of S180 tumor growth in mice; conditions: for change of body weight (g) / tumor inhibition rate (%) with physiological saline group as control / tumor inhibition rate (%) with solvent group as control / weight of tumor (x ± SD, g): 10 days
Procedure: NIH mice used for the tests were about 18-22 grams and divided into 10 mice per group. The liquid (0.2 ml) of S180 ascites tumor of mice was inoculated subcutaneously into the armpit region of mice. The next day after the inoculation, each group of mice were injected intraperitoneally: (1) physiological saline group; (2) solvent control group (DMSO); (3) positive control group [cyclophosphamide 60 mg/(kg·d)]; (4) low-dose group 1: icariside I 2 mg/(kg·d); (5) low-dose group 2: icariside I 5 mg/(kg·d); (6) middle-dose group: icariside I 10 mg/(kg·d); (7) high-dose group: icariside I 20 mg/(kg·d). After administration for 10 continuous days, the administration was stopped and on the next day, the mice were weighed and sacrificed with tumor mass stripped and weighed. The physiological saline group and solvent group were used as a control for calculation of tumor inhibition rate.

xenograft tumor = test: Xenograft tumor growth in nude mice; assay type: in vivo, BALB/c (nu/nu) female nude mice; conditions: intraperitoneal 0.02 and 0.1 mg/10 g every 2 days, 30-day period
Procedure: The test used 4-6 weeks old BALB/c (nu/nu) female nude mice weighed 18-22 g fed in a SPF clean room with free access to food and water. […] When the tumor grew to the initial volume for administration with a pharmaceutical (100 mm^3), these mice were divided into groups with 10 mice for each group. For each group, nude mice were injected intraperitoneally: (1) the blank control group was injected with 0.1 ml/10 g solvent (5% DMSO+95% physiological saline); […] The administration was conducted every 2 days in a 30-day period. Vernier caliper was used to measure the largest longitudinal diameter (L) and transverse diameter (S) of tumor every two days. The approximate volume of the tumor was calculated with the equation of V (cm^3)=0.5×L× S^2 to plot a tumor growth curve. After the pharmaceutical treatment, the tumor was stripped and weighed for record.

For `COc1ccc(-c2oc3c(CC=C(C)C)c(O[C@@H]4O[C@H](CO)[C@@H](O)[C@H](O)[C@H]4O)cc(O)c3c(=O)c2O)cc1` [icariside I], the “effect on PFMCs in producing IFN-γ” value [1] was “significant and dose dependent effect”, the “acute toxicity LD50” value ([2]; mice, oral) was “greater than 2000 mg/kg” and the “deaths of test mice” value ([2]; oral 100-2000 mg/kg) was “none of the test mice died”. The “effect on PBMCs in producing IFN-γ” value (PBMCs from healthy human) was “no significant promoting effect”, the “tumorigenesis and tumor progression in mice” value ([3]; S180, intraperitoneal, 10 continuous days, 2-20 mg/(kg·d)) was “significantly inhibit” and the “change of body weight (g)” value ([3]; high dose 20 mg/Kg i.p.) was “+9.0 g”. The “tumor inhibition rate (%) with physiological saline group as control” value ([3]; high dose 20 mg/Kg i.p.) was 67.3%, the “tumor inhibition rate (%) with solvent group as control” value ([3]; high dose 20 mg/Kg i.p.) was 74.6% and the “weight of tumor (x ± SD, g)” value ([3]; high dose 20 mg/Kg i.p.) was 0.34 ± 0.12 g. For the same molecule, the “change of body weight (g)” value ([3]; low dose 2 mg/Kg i.p.) was “+11.6 g”, the “tumor inhibition rate (%) with physiological saline group as control” value ([3]; low dose 2 mg/Kg i.p.) was 5.8% and the “tumor inhibition rate (%) with solvent group as control” value ([3]; low dose 2 mg/Kg i.p.) was 26.9%. For the same molecule, the “weight of tumor (x ± SD, g)” value ([3]; low dose 2 mg/Kg i.p.) was 0.98 ± 0.47 g, the “change of body weight (g)” value ([3]; low dose 5 mg/Kg i.p.) was “+12.5 g” and the “tumor inhibition rate (%) with physiological saline group as control” value ([3]; low dose 5 mg/Kg i.p.) was 26.0%. The “tumor inhibition rate (%) with solvent group as control” value ([3]; low dose 5 mg/Kg i.p.) was 42.5%, the “weight of tumor (x ± SD, g)” value ([3]; low dose 5 mg/Kg i.p.) was 0.77 ± 0.47 g and the “change of body weight (g)” value ([3]; middle dose 10 mg/Kg i.p.) was “+10.6 g”. The “tumor inhibition rate (%) with physiological saline group as control” value ([3]; middle dose 10 mg/Kg i.p.) was 38.5%, the “tumor inhibition rate (%) with solvent group as control” value ([3]; middle dose 10 mg/Kg i.p.) was 52.2% and the “weight of tumor (x ± SD, g)” value ([3]; middle dose 10 mg/Kg i.p.) was 0.64 ± 0.25 g. The “growth and development of the transplanted tumor mass in nude mice” value (xenograft tumor) was “significantly inhibit”.
